Data from patent publication US6423689B1, “Peptidyl calcium channel blockers” (Warner-Lambert Company, priority 1997, dated 2002).
pIC50: −log10 of the molar value.

Experiments:
[1] = target: T1, N-type Ca2+ channels in IMR-32 cells (Homo sapiens, UniProt Q00975); experiment: Inhibition of N-type calcium flux in IMR-32 cells (Indo-1 fluorescence, nitrendipine present); format: cell-based; conditions: for inhibition at 1 µM / inhibition at 10 µM: IMR-32; for pIC50: IMR-32 cells, 5 μM nitrendipine, K+ depolarization
T1 construct: host or cells: IMR-32 cells, differentiated with dibutyryl cAMP and bromodeoxyuridine
T1 sequence (Q00975 whole entry): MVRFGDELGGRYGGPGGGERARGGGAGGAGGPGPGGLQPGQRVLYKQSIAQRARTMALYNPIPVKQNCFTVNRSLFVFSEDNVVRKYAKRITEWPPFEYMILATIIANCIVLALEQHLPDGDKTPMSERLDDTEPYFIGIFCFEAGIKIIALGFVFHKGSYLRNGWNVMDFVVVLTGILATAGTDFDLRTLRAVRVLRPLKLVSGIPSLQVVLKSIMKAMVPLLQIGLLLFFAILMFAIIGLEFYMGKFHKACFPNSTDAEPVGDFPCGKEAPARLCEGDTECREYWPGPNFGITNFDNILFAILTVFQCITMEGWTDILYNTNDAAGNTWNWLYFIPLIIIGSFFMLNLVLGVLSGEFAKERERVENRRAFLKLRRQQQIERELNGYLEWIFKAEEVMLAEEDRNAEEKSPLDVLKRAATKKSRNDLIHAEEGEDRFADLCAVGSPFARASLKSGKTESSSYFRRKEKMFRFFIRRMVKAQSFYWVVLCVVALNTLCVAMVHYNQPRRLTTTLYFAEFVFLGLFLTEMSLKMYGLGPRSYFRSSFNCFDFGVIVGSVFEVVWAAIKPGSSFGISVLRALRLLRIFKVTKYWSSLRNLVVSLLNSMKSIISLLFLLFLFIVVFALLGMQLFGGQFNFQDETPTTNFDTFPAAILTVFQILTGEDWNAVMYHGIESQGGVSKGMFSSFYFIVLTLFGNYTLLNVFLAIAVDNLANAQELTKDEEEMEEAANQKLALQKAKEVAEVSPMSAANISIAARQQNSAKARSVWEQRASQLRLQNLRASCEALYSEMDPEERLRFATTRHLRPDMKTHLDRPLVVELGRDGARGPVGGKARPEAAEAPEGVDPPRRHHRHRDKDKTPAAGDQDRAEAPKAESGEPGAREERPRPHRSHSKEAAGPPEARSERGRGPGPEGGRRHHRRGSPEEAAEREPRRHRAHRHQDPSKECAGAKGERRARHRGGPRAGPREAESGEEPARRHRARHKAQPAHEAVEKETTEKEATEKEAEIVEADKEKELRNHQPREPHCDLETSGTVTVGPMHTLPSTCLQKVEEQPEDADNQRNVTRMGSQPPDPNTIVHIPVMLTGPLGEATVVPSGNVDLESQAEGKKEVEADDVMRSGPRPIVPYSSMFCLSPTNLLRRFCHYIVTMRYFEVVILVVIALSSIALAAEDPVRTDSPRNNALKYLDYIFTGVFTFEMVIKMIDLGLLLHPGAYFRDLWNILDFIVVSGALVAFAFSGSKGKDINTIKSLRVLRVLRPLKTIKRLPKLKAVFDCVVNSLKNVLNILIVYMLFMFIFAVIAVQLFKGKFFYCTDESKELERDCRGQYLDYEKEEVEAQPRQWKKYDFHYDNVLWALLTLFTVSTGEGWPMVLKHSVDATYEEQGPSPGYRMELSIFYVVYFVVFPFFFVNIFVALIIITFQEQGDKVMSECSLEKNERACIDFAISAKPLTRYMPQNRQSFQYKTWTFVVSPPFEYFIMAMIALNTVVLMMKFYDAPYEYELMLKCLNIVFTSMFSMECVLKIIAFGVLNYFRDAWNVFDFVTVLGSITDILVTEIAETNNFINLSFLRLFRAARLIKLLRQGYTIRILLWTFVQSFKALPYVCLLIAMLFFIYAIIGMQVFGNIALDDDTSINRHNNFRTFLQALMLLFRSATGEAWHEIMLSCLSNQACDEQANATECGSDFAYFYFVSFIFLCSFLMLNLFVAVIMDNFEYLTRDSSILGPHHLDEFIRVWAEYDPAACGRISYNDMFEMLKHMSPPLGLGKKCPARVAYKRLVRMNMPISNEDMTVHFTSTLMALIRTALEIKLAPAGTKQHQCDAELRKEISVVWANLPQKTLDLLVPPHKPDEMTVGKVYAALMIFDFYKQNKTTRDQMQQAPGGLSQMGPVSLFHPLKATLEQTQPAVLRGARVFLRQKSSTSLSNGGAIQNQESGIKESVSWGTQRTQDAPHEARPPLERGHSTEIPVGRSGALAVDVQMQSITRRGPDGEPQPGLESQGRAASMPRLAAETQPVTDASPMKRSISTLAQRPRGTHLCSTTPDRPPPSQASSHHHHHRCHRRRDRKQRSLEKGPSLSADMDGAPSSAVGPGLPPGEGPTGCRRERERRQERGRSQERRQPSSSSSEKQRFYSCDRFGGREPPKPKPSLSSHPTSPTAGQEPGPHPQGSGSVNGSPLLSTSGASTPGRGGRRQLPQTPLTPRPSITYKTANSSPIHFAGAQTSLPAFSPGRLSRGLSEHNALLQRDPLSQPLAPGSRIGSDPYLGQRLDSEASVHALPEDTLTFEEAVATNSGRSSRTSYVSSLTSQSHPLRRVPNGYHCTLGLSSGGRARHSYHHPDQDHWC
T1 sequence (P54289 25-956 partner limits assumed): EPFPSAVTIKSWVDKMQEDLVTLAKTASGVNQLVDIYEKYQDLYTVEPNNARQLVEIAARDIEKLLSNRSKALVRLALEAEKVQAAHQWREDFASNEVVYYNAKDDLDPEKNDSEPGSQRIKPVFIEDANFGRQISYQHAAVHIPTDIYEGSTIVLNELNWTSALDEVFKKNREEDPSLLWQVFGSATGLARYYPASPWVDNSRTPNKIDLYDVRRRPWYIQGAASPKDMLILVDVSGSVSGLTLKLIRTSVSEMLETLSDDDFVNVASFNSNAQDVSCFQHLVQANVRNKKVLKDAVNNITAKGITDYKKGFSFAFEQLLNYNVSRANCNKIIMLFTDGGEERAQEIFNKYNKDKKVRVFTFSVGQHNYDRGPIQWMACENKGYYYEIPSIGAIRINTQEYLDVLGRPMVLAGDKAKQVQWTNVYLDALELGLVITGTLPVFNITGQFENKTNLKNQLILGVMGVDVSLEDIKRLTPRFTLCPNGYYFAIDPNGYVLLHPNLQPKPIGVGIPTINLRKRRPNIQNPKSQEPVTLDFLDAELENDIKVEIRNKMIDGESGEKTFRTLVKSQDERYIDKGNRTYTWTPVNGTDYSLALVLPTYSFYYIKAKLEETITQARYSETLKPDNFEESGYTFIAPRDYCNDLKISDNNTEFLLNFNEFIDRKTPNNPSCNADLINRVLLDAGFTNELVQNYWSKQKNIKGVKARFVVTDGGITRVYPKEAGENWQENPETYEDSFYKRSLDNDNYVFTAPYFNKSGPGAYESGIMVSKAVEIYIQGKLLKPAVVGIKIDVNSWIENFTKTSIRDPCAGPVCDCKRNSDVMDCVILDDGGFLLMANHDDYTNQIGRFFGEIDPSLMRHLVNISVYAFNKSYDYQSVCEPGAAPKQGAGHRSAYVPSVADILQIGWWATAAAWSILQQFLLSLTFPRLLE
T1 sequence (P54289 957-1103 partner limits assumed): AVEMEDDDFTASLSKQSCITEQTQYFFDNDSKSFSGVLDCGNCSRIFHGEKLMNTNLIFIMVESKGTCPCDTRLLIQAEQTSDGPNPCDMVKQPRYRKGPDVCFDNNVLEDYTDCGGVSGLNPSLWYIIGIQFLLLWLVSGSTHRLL
T1 sequence (P54284 whole entry partner): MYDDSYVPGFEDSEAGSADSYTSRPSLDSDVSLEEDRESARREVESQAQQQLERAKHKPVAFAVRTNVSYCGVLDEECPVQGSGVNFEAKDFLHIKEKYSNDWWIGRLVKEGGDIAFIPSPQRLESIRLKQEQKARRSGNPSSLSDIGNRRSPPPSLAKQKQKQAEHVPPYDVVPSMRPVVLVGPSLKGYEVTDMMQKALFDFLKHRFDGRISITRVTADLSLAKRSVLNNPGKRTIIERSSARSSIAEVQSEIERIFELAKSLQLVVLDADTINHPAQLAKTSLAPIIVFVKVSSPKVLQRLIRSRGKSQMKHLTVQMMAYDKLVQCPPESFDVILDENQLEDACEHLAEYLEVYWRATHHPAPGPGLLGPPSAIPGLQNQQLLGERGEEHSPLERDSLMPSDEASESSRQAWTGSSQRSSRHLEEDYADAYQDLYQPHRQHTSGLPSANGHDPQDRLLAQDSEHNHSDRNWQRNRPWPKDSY
Summary of the method: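 Differentiated IMR-32 cells (7–13 days) were loaded with 5 μM Indo-1 AM, preincubated with compound for 10 min at 30° C, and depolarized with KCl/CaCl2 stimulation solution, with 5 μM nitrendipine blocking L-channels. Peak-minus-basal 400/490 nm emission ratio was plotted against drug concentration, and IC50 came from four-parameter logistic fits.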

[2] = target: T2, L-type Ca2+ channels in A10 cells (Rattus norvegicus, UniProt P22002); experiment: Inhibition of L-type calcium flux in A10 cells (FLIPR); format: cell-based
T2 construct: which endogenously expresses L-type calcium channels; host or cells: A10 rat aortic smooth muscle cells

Row | Compound | inhibition at 1 µM [1] | inhibition at 10 µM [1] | pIC50 [1] | pIC50 [2] | Inhibition of Calcium Flux in IMR-32 Cells % Inhibition at 1 μM ([1]; 1 μM) | Inhibition of Calcium Flux in IMR-32 Cells % Inhibition at 10 μM ([1]; 10 μM)
1 | CC(C)C[C@H](NC(=O)N1CCCCCC1)C(=O)N[C@@H](Cc1ccc(OCc2ccccc2)cc1)C(=O)OC(C)(C)C [Example 1] | 71% | 95% | 6.46 | 5.76 |  | 
2 | CC(C)(C)OC(=O)[C@H](Cc1ccc(OCc2ccccc2)cc1)NC(=O)[C@H](Cc1ccccc1)NC(=O)N1CCCCCC1 [Example 16] | 44% | 92% | 5.96 | 6.55 |  | 
3 | CC(C)C[C@H](NC(=O)N1CCCCCC1)C(=O)N[C@@H](Cc1ccc(OCc2ccccc2)cc1)C(=O)NCCCn1ccnc1 [Example 237, [S-(R*,R*)]-Azepane-1-carboxylic acid {(1-[2-(4-benzyloxy phenyl)-1-(3-imidazol-1-yl-propylcarbamoyl)-ethylcarbamoyl]-3-methyl-butyl}-amide] | 52% | 93% | 6.02 | 5.66 |  | 
4 | CC(C)C[C@H](NC(=O)N1CCCCCC1)C(=O)N[C@@H](Cc1ccc(OCc2ccccn2)cc1)C(=O)OC(C)(C)C [Example 25, [S-(R*,R*)]-2-{2-[(Azepane-1-carbonyl)-amino]-4-methyl-pentanoylamino}-3-[4-(pyridin-2-ylmethoxy)-phenyl]-propionic acid tert-butyl ester] | 32% | 82% | 5.68 | 5.77 |  | 
5 | CC(C)C[C@H](NC(=O)N1CCCCCC1)C(=O)N[C@@H](Cc1ccc(C=Cc2ccccc2)cc1)C(=O)NC(C)(C)C [Example 141, [S-(R*,R*)]-Azepane-1-carboxylic acid {1-[1-tert-butylcarbamoyl-2-(4-styryl-phenyl)-ethylcarbamoyl]-3-methyl-butyl}-amide] | 37% | 66% |  | 6.39 |  | 
6 | CC(C)C[C@H](NC(=O)N1CCCCCC1)C(=O)N[C@@H](Cc1ccc(OCc2ccncc2)cc1)C(=O)OC(C)(C)C [Example 26, [S-(R*,R*)]-2-{2-[(Azepane-1-carbonyl)-amino]-4-methyl-pentanoylamino}-3-[4-(pyridin-4-ylmethoxy)-phenyl]-propionic acid tert-butyl ester] | 44% | 84% | 5.80 | 5.52 |  | 
7 | CC(C)(C)OC(=O)[C@H](Cc1ccc(OCc2ccccc2)cc1)NC(=O)CNC(=O)N1CCCCCC1 (stereo in doubt) [Example 8, [S-(R*,R*)]-2-{2-[(Azepane-1-carbonyl)-amino]-acetylamino}-3-(4-benzyloxy-phenyl)-propionic acid tert-butyl ester] |  |  | 5.62 | 6.74 | 29% | 86%
8 | CC(C)C[C@H](NC(=O)N1CCCCCC1)C(=O)N[C@@H](Cc1ccc(OCc2ccccc2)cc1)C(N)=O [Example 21, [S-(R*,R*)]-Azepane-1-carboxylic acid {1-[2-(4-benzyloxy-phenyl)-1-carbamoyl-ethylcarbamoyl]-3-methyl-butyl}-amide] | 26% | 83% | 5.57 | 5.80 |  | 
9 | CC(C)C[C@H](NC(=O)N1CCCCCC1)C(=O)N[C@@H](Cc1ccc(C#CC2(O)CCCCC2)cc1)C(=O)NC(C)(C)C [Example 138, [S-(R*,R*)]-Azepane-1-carboxylic acid (1-({-tert-butylcarbamoyl-2-[4-(1-hydroxy-cyclohexylethynyl)-phenyl]-ethylcarbamoyl}-3-methyl-butyl)-amide] | 23% | 67% |  | 5.80 |  | 
